Assay results reported in US8933230B2, “Phosphorus-containing group-substituted quinoline, its preparation process, medical composition containing the compounds and application” (priority 2011, dated 2015).

Legend:
Assay in all cases: KinomeScan kinase panel
Assay type in all cases: binding
[1] = biological target: T1, CAMKK2 (Homo sapiens, UniProt Q96RR4)
T1 construct: purchased DiscoveRx Corporation (KinomeScan)
How it was run: (§1)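 Read-out is inhibition at one dose. Compound concentration was 1000 nM, run through the 442-kinase KinomeScan platform.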

[2] = biological target: T2, MST1 (Homo sapiens, UniProt Q13043)
T2 construct: purchased DiscoveRx Corporation (KinomeScan)
How it was run: as §1

[3] = biological target: T3, ULK1 (Homo sapiens, UniProt O75385)
T3 construct: purchased DiscoveRx Corporation (KinomeScan service)
How it was run: as §1

[4] = biological target: T4, ERK8 (Homo sapiens, UniProt Q8TD08)
T4 construct: purchased DiscoveRx Corporation (KinomeScan)
How it was run: as §1

[5] = biological target: T5, CDK3 (Homo sapiens, UniProt Q00526)
T5 construct: purchased DiscoveRx Corporation (KinomeScan)
How it was run: as §1

[6] = biological target: T6, SYK (Homo sapiens, UniProt P43405)
T6 construct: purchased DiscoveRx Corporation (KinomeScan)
How it was run: as §1

[7] = biological target: T7, CDC2L1 (Homo sapiens, UniProt P21127)
T7 construct: purchased DiscoveRx Corporation (KinomeScan)
How it was run: as §1

[8] = biological target: T8, IKK-alpha (Homo sapiens, UniProt O15111)
T8 construct: purchased DiscoveRx Corporation (KinomeScan)
How it was run: as §1

[9] = biological target: T9, ALK (Homo sapiens, UniProt Q9UM73)
T9 construct: purchased DiscoveRx Corporation (KinomeScan)
How it was run: as §1

[10] = biological target: T10, TYK2(JH1domain-pseudokinase) (Homo sapiens, UniProt P29597)
T10 construct: pseudokinase; purchased DiscoveRx Corporation (KinomeScan service)
How it was run: as §1

[11] = biological target: T11, BMPR1A (Homo sapiens, UniProt P36894)
T11 construct: purchased DiscoveRx Corporation (KinomeScan)
How it was run: as §1

[12] = biological target: T12, TNIK (Homo sapiens, UniProt Q9UKE5)
T12 construct: purchased DiscoveRx Corporation (KinomeScan)
How it was run: as §1

[13] = biological target: T13, CDKL2 (Homo sapiens, UniProt Q92772)
T13 construct: purchased DiscoveRx Corporation (KinomeScan)
How it was run: as §1

[14] = biological target: T14, TIE1 (Homo sapiens, UniProt P35590)
T14 construct: purchased DiscoveRx Corporation (KinomeScan)
How it was run: as §1

[15] = biological target: T15, RIPK5 (Homo sapiens, UniProt Q6XUX3)
T15 construct: purchased DiscoveRx Corporation
How it was run: as §1

[16] = biological target: T16, RAF1 (Homo sapiens, UniProt P04049)
T16 construct: purchased DiscoveRx Corporation
How it was run: as §1

[17] = biological target: T17, NEK3 (Homo sapiens, UniProt P51956)
T17 construct: purchased DiscoveRx Corporation (KinomeScan panel)
How it was run: as §1

[18] = biological target: T18, MAP4K3 (Homo sapiens, UniProt Q8IVH8)
T18 construct: purchased DiscoveRx Corporation (KinomeScan)
How it was run: as §1

[19] = biological target: T19, IRAK3 (Homo sapiens, UniProt Q9Y616)
T19 construct: purchased DiscoveRx Corporation (KinomeScan)
How it was run: as §1

[20] = biological target: T20, MTOR (Homo sapiens, UniProt P42345)
T20 construct: purchased DiscoveRx Corporation (KinomeScan)
How it was run: as §1

[21] = biological target: T21, ERBB4 (Homo sapiens, UniProt Q15303)
T21 construct: purchased DiscoveRx Corporation (KinomeScan)
How it was run: as §1

[22] = biological target: T22, EPHA5 (Homo sapiens, UniProt P54756)
T22 construct: purchased DiscoveRx Corporation (KinomeScan)
How it was run: as §1

[23] = biological target: T23, LZK (Homo sapiens, UniProt O43283)
T23 construct: purchased DiscoveRx Corporation (KinomeScan)
How it was run: as §1

[24] = biological target: T24, EGFR (Homo sapiens, UniProt P00533)
T24 construct: purchased DiscoveRx Corporation (KinomeScan)
How it was run: as §1

[25] = biological target: T25, FER (Homo sapiens, UniProt P16591)
T25 construct: purchased DiscoveRx Corporation (KinomeScan)
How it was run: as §1

[26] = biological target: T26, RIPK2 (Homo sapiens, UniProt O43353)
T26 construct: purchased DiscoveRx Corporation
How it was run: as §1

[27] = biological target: T27, RPS6KA5(kin.Dom.1-N-termimal) (Homo sapiens, UniProt O75582)
T27 construct: kin.Dom.1; purchased DiscoveRx Corporation
How it was run: as §1

[28] = biological target: T28, ICK (Homo sapiens, UniProt Q9UPZ9)
T28 construct: purchased DiscoveRx Corporation (KinomeScan)
How it was run: as §1

[29] = biological target: T29, CSNK1E (Homo sapiens, UniProt P49674)
T29 construct: purchased DiscoveRx Corporation (KinomeScan)
How it was run: as §1

[30] = biological target: T30, STK36 (Homo sapiens, UniProt Q9NRP7)
T30 construct: purchased DiscoveRx Corporation (KinomeScan)
How it was run: as §1

[31] = biological target: T31, CDK2 (Homo sapiens, UniProt P24941)
T31 construct: purchased DiscoveRx Corporation (KinomeScan)
How it was run: as §1

[32] = biological target: T32, MERTK (Homo sapiens, UniProt Q12866)
T32 construct: purchased DiscoveRx Corporation (KinomeScan)
How it was run: as §1

[33] = biological target: T33, MAPKAPK5 (Homo sapiens, UniProt Q8IW41)
T33 construct: purchased DiscoveRx Corporation (KinomeScan)
How it was run: as §1

[34] = biological target: T34, KIT(D816V) (Homo sapiens, UniProt P10721, D816V)
T34 construct: purchased DiscoveRx Corporation (KinomeScan)
How it was run: as §1

[35] = biological target: T35, PIK3CA(E545K) (Homo sapiens, UniProt P42336, E545K)
T35 construct: purchased DiscoveRx Corporation (KinomeScan)
How it was run: as §1

T5 sequence (Q00526 whole entry): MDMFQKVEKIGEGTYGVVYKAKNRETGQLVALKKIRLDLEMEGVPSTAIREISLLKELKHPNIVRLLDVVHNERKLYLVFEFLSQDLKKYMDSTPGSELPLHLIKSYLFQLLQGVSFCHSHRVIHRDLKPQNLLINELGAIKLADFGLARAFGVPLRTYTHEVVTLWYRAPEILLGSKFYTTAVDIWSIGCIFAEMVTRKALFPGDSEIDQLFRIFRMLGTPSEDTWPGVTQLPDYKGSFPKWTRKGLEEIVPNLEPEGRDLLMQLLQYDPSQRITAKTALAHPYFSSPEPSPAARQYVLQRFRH
T29 sequence (P49674 whole entry): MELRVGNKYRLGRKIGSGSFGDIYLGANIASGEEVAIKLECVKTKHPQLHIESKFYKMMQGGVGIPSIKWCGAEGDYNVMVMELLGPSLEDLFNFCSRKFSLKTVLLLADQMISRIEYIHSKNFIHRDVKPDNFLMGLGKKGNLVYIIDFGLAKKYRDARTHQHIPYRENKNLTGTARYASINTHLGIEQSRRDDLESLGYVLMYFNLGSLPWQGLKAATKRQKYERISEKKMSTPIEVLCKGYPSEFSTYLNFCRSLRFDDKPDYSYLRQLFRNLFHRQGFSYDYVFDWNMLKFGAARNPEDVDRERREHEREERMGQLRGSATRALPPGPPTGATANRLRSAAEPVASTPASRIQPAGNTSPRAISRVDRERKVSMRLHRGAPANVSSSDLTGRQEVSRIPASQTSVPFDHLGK
T34 sequence (P10721 26-976 D816V): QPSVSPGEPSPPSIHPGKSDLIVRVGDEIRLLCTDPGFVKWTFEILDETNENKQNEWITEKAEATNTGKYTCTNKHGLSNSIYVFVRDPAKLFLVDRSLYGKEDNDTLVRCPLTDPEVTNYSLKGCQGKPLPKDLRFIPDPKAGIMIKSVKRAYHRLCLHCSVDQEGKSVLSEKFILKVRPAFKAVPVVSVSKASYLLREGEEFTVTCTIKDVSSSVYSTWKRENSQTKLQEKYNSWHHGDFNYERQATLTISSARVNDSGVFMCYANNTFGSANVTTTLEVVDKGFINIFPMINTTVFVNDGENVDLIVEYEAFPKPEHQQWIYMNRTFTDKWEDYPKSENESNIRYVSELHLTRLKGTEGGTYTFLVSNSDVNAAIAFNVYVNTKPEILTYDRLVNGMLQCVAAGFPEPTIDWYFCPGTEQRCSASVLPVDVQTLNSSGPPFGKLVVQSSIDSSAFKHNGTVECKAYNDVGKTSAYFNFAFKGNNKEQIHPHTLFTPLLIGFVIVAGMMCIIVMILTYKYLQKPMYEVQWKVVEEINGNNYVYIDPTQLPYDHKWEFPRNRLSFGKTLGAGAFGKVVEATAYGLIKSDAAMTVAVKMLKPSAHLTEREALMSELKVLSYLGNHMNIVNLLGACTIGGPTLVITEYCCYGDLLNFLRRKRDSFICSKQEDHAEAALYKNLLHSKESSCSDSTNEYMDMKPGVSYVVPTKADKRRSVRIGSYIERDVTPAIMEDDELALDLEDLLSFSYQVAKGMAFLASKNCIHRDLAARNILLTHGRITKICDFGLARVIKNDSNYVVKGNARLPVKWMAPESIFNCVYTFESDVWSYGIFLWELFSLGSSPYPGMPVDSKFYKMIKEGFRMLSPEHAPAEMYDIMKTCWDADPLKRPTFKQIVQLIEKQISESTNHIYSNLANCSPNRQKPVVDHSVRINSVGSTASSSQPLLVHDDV
T11 sequence (P36894 24-532): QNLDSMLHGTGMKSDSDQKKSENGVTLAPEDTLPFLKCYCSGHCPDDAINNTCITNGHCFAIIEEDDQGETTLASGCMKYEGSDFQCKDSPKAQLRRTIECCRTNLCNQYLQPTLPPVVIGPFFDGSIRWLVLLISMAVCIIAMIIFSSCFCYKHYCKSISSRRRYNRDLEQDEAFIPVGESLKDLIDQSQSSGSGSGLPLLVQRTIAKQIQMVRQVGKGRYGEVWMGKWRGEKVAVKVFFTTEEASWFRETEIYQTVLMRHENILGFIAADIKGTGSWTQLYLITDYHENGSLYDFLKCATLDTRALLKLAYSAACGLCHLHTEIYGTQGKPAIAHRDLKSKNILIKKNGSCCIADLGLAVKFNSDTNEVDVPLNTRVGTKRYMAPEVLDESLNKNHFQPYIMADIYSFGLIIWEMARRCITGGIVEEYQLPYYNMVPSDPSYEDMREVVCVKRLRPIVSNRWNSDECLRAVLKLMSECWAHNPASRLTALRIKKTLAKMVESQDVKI
T3 sequence (O75385 whole entry): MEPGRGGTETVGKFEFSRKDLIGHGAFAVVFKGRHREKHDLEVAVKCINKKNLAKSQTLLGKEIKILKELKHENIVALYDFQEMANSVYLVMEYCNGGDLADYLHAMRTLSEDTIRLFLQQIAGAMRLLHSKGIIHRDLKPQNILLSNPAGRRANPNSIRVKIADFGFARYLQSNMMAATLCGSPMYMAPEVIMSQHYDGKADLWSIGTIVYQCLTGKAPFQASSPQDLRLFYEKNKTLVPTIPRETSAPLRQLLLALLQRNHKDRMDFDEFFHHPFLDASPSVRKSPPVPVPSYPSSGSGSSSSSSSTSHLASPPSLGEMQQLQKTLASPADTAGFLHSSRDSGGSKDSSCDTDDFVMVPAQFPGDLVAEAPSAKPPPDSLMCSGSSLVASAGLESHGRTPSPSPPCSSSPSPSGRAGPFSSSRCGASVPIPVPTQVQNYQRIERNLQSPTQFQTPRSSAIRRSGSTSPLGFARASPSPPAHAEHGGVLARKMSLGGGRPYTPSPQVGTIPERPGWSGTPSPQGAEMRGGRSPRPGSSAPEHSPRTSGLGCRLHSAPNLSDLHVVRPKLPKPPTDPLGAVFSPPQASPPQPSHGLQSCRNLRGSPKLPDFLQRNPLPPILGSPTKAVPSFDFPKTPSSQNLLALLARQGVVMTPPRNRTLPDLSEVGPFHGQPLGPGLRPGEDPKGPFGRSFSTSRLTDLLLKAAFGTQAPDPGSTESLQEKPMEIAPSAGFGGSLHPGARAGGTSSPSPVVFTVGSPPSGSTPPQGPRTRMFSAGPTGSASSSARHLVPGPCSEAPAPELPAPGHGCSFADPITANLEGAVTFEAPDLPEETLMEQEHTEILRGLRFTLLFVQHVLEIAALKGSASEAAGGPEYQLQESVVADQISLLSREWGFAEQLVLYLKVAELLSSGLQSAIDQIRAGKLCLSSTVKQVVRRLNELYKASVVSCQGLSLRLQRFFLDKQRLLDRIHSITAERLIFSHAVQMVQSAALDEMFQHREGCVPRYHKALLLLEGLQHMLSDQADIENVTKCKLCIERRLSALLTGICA
T26 sequence (O43353 whole entry): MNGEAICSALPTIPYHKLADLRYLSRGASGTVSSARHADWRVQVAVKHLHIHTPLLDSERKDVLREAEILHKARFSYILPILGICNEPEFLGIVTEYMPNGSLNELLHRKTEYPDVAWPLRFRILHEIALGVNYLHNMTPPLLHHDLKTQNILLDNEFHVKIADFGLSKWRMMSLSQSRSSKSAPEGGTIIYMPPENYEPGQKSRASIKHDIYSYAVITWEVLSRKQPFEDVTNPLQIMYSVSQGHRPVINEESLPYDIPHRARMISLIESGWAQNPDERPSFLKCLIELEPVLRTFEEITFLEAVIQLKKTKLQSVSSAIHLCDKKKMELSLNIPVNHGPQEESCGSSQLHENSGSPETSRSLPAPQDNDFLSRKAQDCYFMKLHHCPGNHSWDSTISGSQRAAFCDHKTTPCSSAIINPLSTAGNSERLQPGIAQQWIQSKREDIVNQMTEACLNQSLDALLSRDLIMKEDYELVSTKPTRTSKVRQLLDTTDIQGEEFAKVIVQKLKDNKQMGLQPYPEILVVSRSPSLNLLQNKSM
T2 sequence (Q13043 whole entry): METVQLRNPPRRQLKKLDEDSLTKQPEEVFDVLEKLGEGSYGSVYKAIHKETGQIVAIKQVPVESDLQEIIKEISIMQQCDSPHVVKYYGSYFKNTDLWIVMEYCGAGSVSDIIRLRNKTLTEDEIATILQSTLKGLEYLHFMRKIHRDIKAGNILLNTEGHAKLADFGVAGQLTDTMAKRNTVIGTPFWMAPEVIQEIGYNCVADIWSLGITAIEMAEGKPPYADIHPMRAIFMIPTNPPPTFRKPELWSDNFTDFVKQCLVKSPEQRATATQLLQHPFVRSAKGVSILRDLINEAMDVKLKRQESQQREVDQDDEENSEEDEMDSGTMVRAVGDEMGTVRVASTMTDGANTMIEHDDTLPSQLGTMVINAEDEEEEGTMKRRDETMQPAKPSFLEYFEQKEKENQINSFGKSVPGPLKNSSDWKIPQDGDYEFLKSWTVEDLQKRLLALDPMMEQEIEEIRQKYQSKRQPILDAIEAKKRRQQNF
T33 sequence (Q8IW41 whole entry): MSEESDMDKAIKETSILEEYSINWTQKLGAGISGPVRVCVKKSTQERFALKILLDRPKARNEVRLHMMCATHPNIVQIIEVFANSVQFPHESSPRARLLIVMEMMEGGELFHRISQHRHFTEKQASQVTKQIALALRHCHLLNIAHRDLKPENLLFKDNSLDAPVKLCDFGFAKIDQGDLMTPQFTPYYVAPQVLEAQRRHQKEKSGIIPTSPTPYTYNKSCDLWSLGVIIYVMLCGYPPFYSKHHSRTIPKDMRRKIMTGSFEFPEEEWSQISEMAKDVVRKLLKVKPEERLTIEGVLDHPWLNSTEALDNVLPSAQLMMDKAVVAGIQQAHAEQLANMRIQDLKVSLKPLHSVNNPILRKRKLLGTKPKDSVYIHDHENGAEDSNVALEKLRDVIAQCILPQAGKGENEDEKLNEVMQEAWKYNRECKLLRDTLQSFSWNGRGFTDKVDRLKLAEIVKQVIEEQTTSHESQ
T10 sequence (P29597 589-875 limits assumed): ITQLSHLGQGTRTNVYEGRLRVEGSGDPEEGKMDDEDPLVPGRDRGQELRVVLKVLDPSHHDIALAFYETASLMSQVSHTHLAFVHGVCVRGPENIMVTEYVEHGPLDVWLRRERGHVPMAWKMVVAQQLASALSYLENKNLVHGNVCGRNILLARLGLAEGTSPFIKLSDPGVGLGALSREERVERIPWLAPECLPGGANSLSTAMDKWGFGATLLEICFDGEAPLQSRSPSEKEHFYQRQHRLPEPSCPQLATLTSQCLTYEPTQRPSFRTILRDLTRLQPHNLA

CCOP(=O)(CN1CCC(COc2cc3nccc(Oc4ccc(NC(=O)C5(C(=O)Nc6ccc(F)cc6)CC5)cc4F)c3cc2OC)CC1)OCC [Example 10, N1-[4-[[7-[[1-(diethoxyphosphorylmethyl)-4-piperidinyl]methoxyl]-6-methoxyl-4-quinolyl]oxyl]-3-fluorophenyl]-N1′-(4-fluorophenyl)cyclopropane-1,1-dicarboxamide]
% Ctrl@1000 nM [1]: 81 % Ctrl | % Ctrl@1000 nM [2]: 100 % Ctrl | % Ctrl@1000 nM [3]: 100 % Ctrl | % Ctrl@1000 nM [4]: 95 % Ctrl | % Ctrl@1000 nM [5]: 100 % Ctrl | % Ctrl@1000 nM [6]: 58 % Ctrl | % Ctrl@1000 nM [7]: 100 % Ctrl | % Ctrl@1000 nM [8]: 100 % Ctrl | % Ctrl@1000 nM [9]: 15 % Ctrl | % Ctrl@1000 nM [10]: 100 % Ctrl | % Ctrl@1000 nM [11]: 100 % Ctrl | % Ctrl@1000 nM [12]: 70 % Ctrl | % Ctrl@1000 nM [13]: 100 % Ctrl | % Ctrl@1000 nM [14]: 4 % Ctrl | % Ctrl@1000 nM [15]: 82 % Ctrl | % Ctrl@1000 nM [16]: 100 % Ctrl | % Ctrl@1000 nM [17]: 58 % Ctrl | % Ctrl@1000 nM [18]: 20 % Ctrl | % Ctrl@1000 nM [19]: 33 % Ctrl | % Ctrl@1000 nM [20]: 100 % Ctrl | % Ctrl@1000 nM [21]: 100 % Ctrl | % Ctrl@1000 nM [22]: 3.5 % Ctrl | % Ctrl@1000 nM [23]: 47 % Ctrl | % Ctrl@1000 nM [24]: 100 % Ctrl | % Ctrl@1000 nM [25]: 50 % Ctrl | % Ctrl@1000 nM [26]: 30 % Ctrl | % Ctrl@1000 nM [27]: 100 % Ctrl | % Ctrl@1000 nM [28]: 95 % Ctrl | % Ctrl@1000 nM [29]: 100 % Ctrl | % Ctrl@1000 nM [30]: 100 % Ctrl | % Ctrl@1000 nM [31]: 100 % Ctrl | % Ctrl@1000 nM [32]: 2.1 % Ctrl | % Ctrl@1000 nM [33]: 100 % Ctrl | % Ctrl@1000 nM [34]: 18 % Ctrl | % Ctrl@1000 nM [35]: 100 % Ctrl
